A short description of assay [1]: Knoop hardness repair (% HR) of acid-etched bovine enamel after treatment and remineralization. Conditions: for % HR (Percentage Hardness Repair): bovine enamel, 40 microliters. Here is the method:
Bovine enamel blocks are obtained from sound bovine incisors without defects. The labial surface of the bovine teeth is cut to provide enamel specimens of about 3×3×2 mm in size. The enamel layer is about 1 mm thick and the dentin left in the specimen is about 1 mm thick.
(§1) Etched enamel samples are prepared by treatment with 1% aqueous citric acid (pH 3.6) for 10 minutes, followed by rinsing with deionized water.
Etched bovine enamel samples are treated with 50 microliters of polyelectrolyte solutions A-F, or with sodium fluoride solution or water, for ten minutes at room temperature. The samples are then rinsed with deionized water and then they are immersed in 50 mL of Remineralization Solution (0.2205 g/L CaCl2·2H2O, 0.1225 g/L KH2PO4, 9.6915 g/L KCl and 4.766 g/L HEPEs buffer, pH adjusted to 7 with NaOH) overnight at 37° C. The enamel samples are then rinsed with deionized water for 50 seconds and then air dried.
Knoop Hardness (KHN) is a measure of hardness of a material calculated by measuring the indentation produced by a diamond tip that is pressed onto the surface of a sample. Using a calibrated microscope, the area of the impression can be determined, and from the area of the indentation (D) in […], and the applied load (F) in kilograms force, the Knoop Hardness is calculated as: KHN=14.229(F/D^2). Knoop hardness has units of kgf/mm^2.
KHN is determined using the Knoop microhardness tester. […] A value for Percentage of Hardness Repair (% HR) is calculated according to the following formula: % HR=(KHNt−KHNe)/(KHN0−KHNe)×100
Bovine and human enamel blocks are prepared and treated with polyelectrolyte test solutions as described in Examples 1 and 2, respectively, except that 40 microliters of the polyelectrolyte solution are applied to the etched enamel surface, instead of 50 microliters. Koop Hardness (KHN) and Percentage Hardness Repair (% HR) are determined as described in Examples 1 and 2. […]

Assay [2] in a line: Knoop hardness repair (% HR) of acid-etched human enamel after treatment and remineralization.
Protocol: KHN is determined using the Knoop microhardness tester. A baseline measurement is taken on a sound enamel sample without treatment (KHN0), on an acid-etched enamel sample (KHNe), and on an acid-etched enamel sample after treatment (KHNt). Each KHN measurement is the average of 5 indentations made on the same specimen at a force of 0.05 kg for 15 seconds. A value for Percentage of Hardness Repair (% HR) is calculated according to the following formula: % HR=(KHNt−KHNe)/(KHN0−KHNe)×100
Etched enamel samples are prepared by treatment with 1% aqueous citric acid (pH 3.6) for 10 minutes, followed by rinsing with deionized water. […]
A short description of assay [3]: Step height repair of etched bovine enamel blocks (sound/damaged/repaired method, Keyence microscope). Here is the method: (§2) The left half of the block (“sound”) is covered using an acid-resistant nail polish, which is then allowed to air dry. The right half of the block (“damaged” and “repaired”) is then treated with 1% citric acid (pH 3.6) for ten minutes to etch the surface. After the treatment, the surface of the block is rinsed with deionized water. The top right corner of the block (“damaged”) is then covered with the same acid-resistant nail polish and air dried. The test formulation is then applied to the bottom right corner of the block (“repaired”), for example, for a ten-minute treatment, followed by rinsing with deionized water. Following the treatment, the enamel blocks are immersed in a Remineralization Solution (0.2205 g/L CaCl2·2H2O, 0.1225 g/L KH2PO4, 9.6915 g/L KCl and 4.766 g/L HEPEs buffer, pH adjusted to 7 with NaOH) overnight at 37° C., and the process repeated for 2-4 days (the blocks immersed daily in fresh remineralization solution). Following this, the blocks are removed, rinsed with deionized water and air dried. The nail polish covers are then removed using acetone solvent, and the surface of the enamel blocks is visualized, for example, by light microscopy, confocal laser scanning microscopy, scanning probe microscopy, or scanning electron microscopy. […]
(§3) Enamel repair is also evaluated using the method described in Example 4. […]

Assay [4] is described as follows: Gloss recovery (% GR) of acid-etched enamel, Novo-Curve glossmeter. Set-up: species or system bovine. The note with it: Example 5. The procedure:
Enamel repair is also evaluated using the method described in Example 4. A Keyence microscope is used to capture the surface morphology and to measure the step height of the treated samples. A Phenom ProX Desktop scanning electron microscope is used to observe the repaired enamel crystals. Bovine enable blocks are treated with either water, the sodium fluoride solution, or the 10 mg/mL ePL+0.06 mg/mL malic acid solution (Solution E above).
The effect of treatments on enamel appearance is also investigated by measuring the surface gloss and observing the surface under a microscope. The gloss values are measured using a Novo-Curve glossmeter. A glossmeter provides a quantifiable way of measuring gloss intensity, and the measurement relates to the amount of reflected light from a black glass standard with a defined refractive index. The ratio of reflected light for a test specimen, compared to the ratio for the gloss standard, is recorded as gloss units (GU). A gloss measurement of >70 GU is considered high gloss, while medium gloss is 10-70 GU, and low gloss is <10 GU.
A baseline measurement is taken on a sound enamel sample without treatment (G0), on an acid-etched enamel sample (Ge), and on an acid-etched enamel sample after treatment (Gt). The percentage of gloss recovery (% GR) is calculated according to the following formula: % GR=(Gt−Ge)/(G0−Ge)×100.

Assay [5] in a line: Light microscopy of enamel surface morphology (sound/damaged/repaired method). Conditions: Example 5; bovine enamel blocks. The procedure:
as §2, §3

Assay [6] can be described thus: Scanning electron microscopy of enamel surface. Conditions: Example 5; bovine enamel blocks. The procedure: as §2, §3
The nature of assay [7]: Surface roughness change (% R) of etched human enamel, 3D laser scanning confocal microscope. The note with it: Example 2, % R=(Rt−Re)/(Re)×100, four days of treatment, negative = smoother.
From the text: Human molar teeth are obtained, and the root portion of the molar is removed. The crown of the molar is cut longitudinally into slices 2 mm thick using a water-cooled low-speed diamond saw. The human enamel samples are then mounted in acrylic resin. The embedded samples are grinded and polished with a sequential series of wet 400 to 4000 grit silicon carbide papers and nylon adhesive backed discs with 0.25 micron diamond or colloidal silica coating. The polished slices are rinsed thoroughly with distilled water three times, sonicated in a water bath for five minutes, then rinsed again and allowed to air dry.
as §1
Etched human enamel samples are treated with 50 microliters of polyelectrolyte solutions A-F, or with control solutions, for ten minutes at room temperature. […]
In addition, surface roughness and morphology are evaluated using a 3D laser scanning confocal microscope. […] Roughness is therefore measured in units of micrometers. Values for roughness of the acid etched enamel sample (Re) and for the acid-etched enamel sample after treatment (Rt) are determined. Percentage of roughness (% R) is calculated as follows: % R=(Rt−Re)/(Re)×100

On to `[F-].[Na+]` [NaF, sodium fluoride], for which the “% HR (Percentage of Hardness Repair)” value in assay [1] (Example 1, bovine enamel etched with 1% citric acid, 50 microliters for ten minutes, Remineralization Solution overnight at 37° C.) was determined as 27.9%. Besides, the “% HR (Percentage Hardness Repair)” value is reported as 35.9% in assay [1] (Example 3, solutions pH 7.0); 41.0% in assay [1] (Example 5, solutions about pH 6.0, 1 day of treatment); 49.3% in assay [2] (Example 3, 40 microliters, solutions pH 7.0, 4 days of treatments). Besides, in assay [3] (Example 5), the “restoration of enamel height in 3-D Keyence photomicrographs (FIG. 3)” value is reported as “do not restore the enamel to the original height”. In addition, in assay [3] (Example 5, calculated from change in step height), the “% Repair (Step height)” value is on record as 65.3%. Besides, the “% GR (percentage of gloss recovery)” value in assay [4] (2 days of remineralization) stood at 12.7%. The “surface gloss recovery, in words” value in assay [4] (after 2 days of remineralization) is “slightly better than water treatment”. Moreover, the “surface morphology of the repaired side under the microscope (FIG. 2)” value in assay [5] was “a clear interface between “damaged” and “repaired” sides is observed”. Further, the “repair of gaps or cracks in the enamel surface by scanning electron microscopy” value in assay [6] is on record as “some healing”.
In the case of `O=C(O)CC(O)C(=O)O` (stereo not drawn) [Malic acid, malic acid], in assay [2] (Example 2, 50 microliters for ten minutes, overnight remineralization, repeated daily for four days), the “% HR (Percentage of Hardness Repair)” value is given as 19.8%. For the same molecule, the “% R (Percentage of roughness)” value in assay [7] is −1.6%.
